{"source": "patent US7163689B2", "about": "“Intravenous valproate for acute treatment of migraine headache” (priority 1999, dated 2007)", "key": {"[1]": {"tested_on": "patients with moderate to severe headaches of 24–72 hours duration", "experiment": "Expanded study: IV VPA vs DHE with metoclopramide IM, acute migraine headache (Example 2)", "format": "in vivo, human", "settings": "for % Headache Relief: 10 patients per group; for Headache Severity / Nausea/vomiting / Phonophobia / Photophobia: individual patient; for Headache Severity: grade 0-3; for Nausea/vomiting / Phonophobia / Photophobia: presence", "description": "This Example describes an expanded study and analysis of the effectiveness of intravenous VPA for the treatment of acute migraine headache of significant duration. Patient data from the pilot study described in Example 1 has been incorporated and further analyzed in addition to new patient data. • Design. […] Patients alternately received intravenous VPA 500 mgs over 15–30 minutes, or dihydroergotamine (“DHE”) 1 mg with metoclopramide 10 mgs intramuscularly (“IM”). Age ranged from 22 to 73 years. Patients rated severity of headache, presence or absence of nausea, photophobia, and phonophobia at 1, 2 and 4 hrs. Table V and Table VI. • Results. In the 10 patients receiving DHE and metoclopramide, 40% had headache relief at 1 hour, 50% at 2 hours, 60% at 4 hours. The percent with nausea at 0, 1, 2, and 4 hours was 60%, 10%, 20%, 30% respectively, photophobia at 0, 1, 2, and 4 hours 100%, 50%, 50%, 40% respectively, phonophobia at 0, 1, 2, and 4 hours 80%, 30%, 50%, 40% respectively. In the 10 patients receiving i.v. VPA, 60% had headache relief at 1 hour, 70% at 2 hours, 70% at 4 hours, the percent with nausea at 0, 1, 2, and 4 hours was 70%, 30% 30%, 20% respectively, photophobia at 0, 1, 2, and 4 hours was 100%, 40%, 40%, 30% respectively, and phonophobia at 0, 1, 2, and 4 hours was 90%, 40%, 40%, 30% respectively. Table VII. • Conclusions. The results of the present study indicate that intravenous VPA is at least as efficacious as DHE for abortive treatment of acute migraine. Accordingly, intravenous VPA offers a treatment option for migraine headache patients who have recently used a triptan or DHE without the risk of drug-drug interaction or cardiovascular complications."}, "acute migraine headache": {"tested_on": "acute migraine headache", "settings": "at 2 hours after administration; cited from earlier work"}}, "note": "Values joined by “and” are separate entries in the source; they are usually repeats but may differ in a detail not shown here. Equal values may be shown once."}
{"compound": "CN1C[C@H](C(=O)N[C@]2(C)O[C@@]3(O)[C@@H]4CCCN4C(=O)[C@H](Cc4ccccc4)N3C2=O)C[C@@H]2c3cccc4[nH]cc(c34)C[C@H]21", "note": "[DHE, dihydroergotamine]", "values": [{"measurement": "% experiencing Nausea", "setting": "[1]; 0-h (baseline)", "result": 60, "unit": "%"}, {"measurement": "% experiencing Phonophobia", "setting": "[1]; 0-h (baseline)", "result": 80, "unit": "%"}, {"measurement": "% experiencing Photophobia", "setting": "[1]; 0-h (baseline)", "result": 100, "unit": "%"}, {"measurement": "% experiencing Nausea", "setting": "[1]; 1-h", "result": 10, "unit": "%"}, {"measurement": "% experiencing Phonophobia", "setting": "[1]; 1-h", "result": 30, "unit": "%"}, {"measurement": "% experiencing Photophobia", "setting": "[1]; 1-h", "result": 50, "unit": "%"}, {"measurement": "% experiencing Nausea", "setting": "[1]; 2-h", "result": 20, "unit": "%"}, {"measurement": "% experiencing Phonophobia", "setting": "[1]; 2-h", "result": 50, "unit": "%"}, {"measurement": "% experiencing Photophobia", "setting": "[1]; 2-h", "result": 50, "unit": "%"}, {"measurement": "% experiencing Nausea", "setting": "[1]; 4-h", "result": 30, "unit": "%"}, {"measurement": "% experiencing Phonophobia", "setting": "[1]; 4-h", "result": 40, "unit": "%"}, {"measurement": "% experiencing Photophobia", "setting": "[1]; 4-h", "result": 40, "unit": "%"}, {"measurement": "% Headache Relief", "setting": "[1]; 1-h", "result": 40, "unit": "%"}, {"measurement": "% Headache Relief", "setting": "[1]; 2-h", "result": 50, "unit": "%"}, {"measurement": "% Headache Relief", "setting": "[1]; 4-h", "result": 60, "unit": "%"}, {"measurement": "% Headache Relief", "setting": "[1]; 24-h", "result": 90, "unit": "%"}, {"measurement": "% experiencing Nausea", "setting": "[1]; 24-h", "result": 10, "unit": "%"}, {"measurement": "% experiencing Phonophobia", "setting": "[1]; 24-h", "result": 10, "unit": "%"}, {"measurement": "Headache Severity", "setting": "[1]; 0-h (baseline), Depacon IV 500 mg or DHE 1 mg IM + Reglan 10 mg IM", "result": "2 (4×) and 3 (6×)"}, {"measurement": "Headache Severity", "setting": "[1]; 1-h", "result": "3 (2×) and 0 (4×) and 2 (4×)"}, {"measurement": "Headache Severity", "setting": "[1]; 2-h", "result": "3 (2×) and 0 (4×) and 2 (3×) and 1"}, {"measurement": "Headache Severity", "setting": "[1]; 4-h", "result": "3 (2×) and 1 (2×) and 0 (4×) and 2 (2×)"}, {"measurement": "Headache Severity", "setting": "[1]; 24-h", "result": "1 (6×) and 2 and 0 (3×)"}, {"measurement": "Nausea/vomiting", "setting": "[1]; 0-h (baseline)", "result": 0}, {"measurement": "Phonophobia", "setting": "[1]; 0-h (baseline)", "result": 0}, {"measurement": "Nausea/vomiting", "setting": "[1]; 1-h", "result": 0}, {"measurement": "Phonophobia", "setting": "[1]; 1-h", "result": 0}, {"measurement": "Photophobia", "setting": "[1]; 1-h", "result": 0}, {"measurement": "Nausea/vomiting", "setting": "[1]; 2-h", "result": 0}, {"measurement": "Phonophobia", "setting": "[1]; 2-h", "result": 0}, {"measurement": "Photophobia", "setting": "[1]; 2-h", "result": 0}, {"measurement": "Nausea/vomiting", "setting": "[1]; 4-h", "result": 0}, {"measurement": "Phonophobia", "setting": "[1]; 4-h", "result": 0}, {"measurement": "Photophobia", "setting": "[1]; 4-h", "result": 0}, {"measurement": "Nausea/vomiting", "setting": "[1]; 24-h", "result": 0}, {"measurement": "Phonophobia", "setting": "[1]; 24-h", "result": 0}, {"measurement": "subjects with good relief of acute migraine headache", "setting": "acute migraine headache", "result": "70–80%"}]}
{"compound": "CCCC(CCC)C(=O)[O-].[Na+]", "note": "[Depacon, valproate sodium]", "values": [{"measurement": "% experiencing Nausea", "setting": "[1]; 0-h (baseline)", "result": 70, "unit": "%"}, {"measurement": "% experiencing Phonophobia", "setting": "[1]; 0-h (baseline)", "result": 90, "unit": "%"}, {"measurement": "% experiencing Photophobia", "setting": "[1]; 0-h (baseline)", "result": 100, "unit": "%"}, {"measurement": "% experiencing Nausea", "setting": "[1]; 1-h", "result": 30, "unit": "%"}, {"measurement": "% experiencing Phonophobia", "setting": "[1]; 1-h", "result": 40, "unit": "%"}, {"measurement": "% experiencing Photophobia", "setting": "[1]; 1-h", "result": 40, "unit": "%"}, {"measurement": "% experiencing Nausea", "setting": "[1]; 2-h", "result": 30, "unit": "%"}, {"measurement": "% experiencing Phonophobia", "setting": "[1]; 2-h", "result": 40, "unit": "%"}, {"measurement": "% experiencing Photophobia", "setting": "[1]; 2-h", "result": 40, "unit": "%"}, {"measurement": "% experiencing Nausea", "setting": "[1]; 4-h", "result": 20, "unit": "%"}, {"measurement": "% experiencing Phonophobia", "setting": "[1]; 4-h", "result": 30, "unit": "%"}, {"measurement": "% experiencing Photophobia", "setting": "[1]; 4-h", "result": 30, "unit": "%"}, {"measurement": "% Headache Relief", "setting": "[1]; 1-h", "result": 60, "unit": "%"}, {"measurement": "% Headache Relief", "setting": "[1]; 2-h", "result": 70, "unit": "%"}, {"measurement": "% Headache Relief", "setting": "[1]; 4-h", "result": 70, "unit": "%"}, {"measurement": "% Headache Relief", "setting": "[1]; 24-h", "result": 50, "unit": "%"}, {"measurement": "% experiencing Nausea", "setting": "[1]; 24-h", "result": 40, "unit": "%"}, {"measurement": "% experiencing Phonophobia", "setting": "[1]; 24-h", "result": 60, "unit": "%"}, {"measurement": "Headache Severity", "setting": "[1]; 0-h (baseline), Depacon IV 500 mg or DHE 1 mg IM + Reglan 10 mg IM, sodium", "result": "3 (5×) and 2 (5×)"}, {"measurement": "Headache Severity", "setting": "[1]; 1-h, sodium", "result": "1 (4×) and 0 (2×) and 2 (2×) and 3 (2×)"}, {"measurement": "Headache Severity", "setting": "[1]; 2-h, sodium", "result": "1 (6×) and 2 (3×) and 0"}, {"measurement": "Headache Severity", "setting": "[1]; 4-h, sodium", "result": "0 (3×) and 1 (4×) and 2 (2×) and 3"}, {"measurement": "Headache Severity", "setting": "[1]; 24-h, sodium", "result": "1 (3×) and 2 (4×) and 3 and 0 (2×)"}, {"measurement": "Nausea/vomiting", "setting": "[1]; 0-h (baseline), sodium", "result": 0}, {"measurement": "Phonophobia", "setting": "[1]; 0-h (baseline), sodium", "result": 0}, {"measurement": "Nausea/vomiting", "setting": "[1]; 1-h, sodium", "result": 0}, {"measurement": "Phonophobia", "setting": "[1]; 1-h, sodium", "result": 0}, {"measurement": "Photophobia", "setting": "[1]; 1-h, sodium", "result": 0}, {"measurement": "Nausea/vomiting", "setting": "[1]; 2-h, sodium", "result": 0}, {"measurement": "Phonophobia", "setting": "[1]; 2-h, sodium", "result": 0}, {"measurement": "Photophobia", "setting": "[1]; 2-h, sodium", "result": 0}, {"measurement": "Nausea/vomiting", "setting": "[1]; 4-h, sodium", "result": 0}, {"measurement": "Phonophobia", "setting": "[1]; 4-h, sodium", "result": 0}, {"measurement": "Photophobia", "setting": "[1]; 4-h, sodium", "result": 0}, {"measurement": "Nausea/vomiting", "setting": "[1]; 24-h, sodium", "result": 0}, {"measurement": "Phonophobia", "setting": "[1]; 24-h, sodium", "result": 0}, {"measurement": "Photophobia", "setting": "[1]; 24-h, sodium", "result": 0}]}
